In patent publication US6905834B1, “Bioluminescent bioreporter integrated circuit detection methods” (UT-Battelle, LLC, priority 1997, dated 2005):
Read-outs that look alike come from different tables or passages of the source.

What was measured:
[1] = system: P. fluorescens HK44; assay type: cell-based, Pseudomonas fluorescens
Source text: A previously developed PBR system with on-line instrumentation (Webb, 1992; Webb et al., 1991) was used to measure bacterial degradative and bioluminescent activity under conditions mimicking those of the subsurface. The reactor design is detailed in FIG. 21. The PBR was temperature controlled and fitted with metal frits welded to the inlet and outlet to retain and distribute feed to immobilized cultures. An additional inter-cavity insert allowed the installation of filters (e.g., […] inorganic and polymeric) between the packed bed and outlet frit that filtered the effluent for automatic injection into the on-line high-performance liquid chromatography (HPLC) and that produced a uniform resistance to flow that improved the overall distribution to the reactor (Webb, 1992). […] HPLC pumps supplied media to each reactor from pressurized feed reservoirs. All nutrients, including oxygen, entered the reactor dissolved in the liquid phase. Naphthalene and salicylate were detected with an on-line HPLC using a Vydac TP20154 column (Sep/A/Ra/Tions Group, Hesperia, Calif.) with a FL-4 dual-monochromator fluorescent detector (Perkin-Elmer, Norwalk, Conn.). Respective excitation and emission wavelengths for salicylate detection were 290 and 360 nm. The reactor was fitted with an on-line light detector for monitoring bioluminescent activity (Dunbar, 1992) consisting of a glued fiber bundle (Ensign Bickford Optics, Simsbury, Conn.) placed approximately 2.5 cm from the entrance of the reactor. An Oriel Inc. (Stratford, Conn.) 7070 photomultiplier detection system using a Model 77348 photomultiplier tube (radiant sensitivity of […] near 500 nm) were employed.
Mineral salts media (pH 7.2) consisting of MgSO4 7H2O ([…]), NH4NO3 ([…]), trizma™ base ([…]), MgO (1.0×10^−3 g/l), CaCl2 (2.9×10^−4 g/l), FeCl3.6H2O (5.4×10^−4 g/l), ZnSO4.7H2O (1.4×10^−4 g/l), CuSO4 (2.5×10^−5 g/l), […] (6.2×10^−6 g/l), and Na2MoO4.H2O (4.9×10^−5 g/l) were supplied to the reactor with an appropriate carbon source for degradation and bioluminescence studies. Kinetic bacterial studies were phosphate limited and maintained aerobic by con-trolled pressurization of feeds and the reactor.
The HK44 was prepared for immobilization by adding freshly thawed inoculum (frozen at −70° C. until use) to 100 mL of YEPG media which contained glucose (1.0 g/l), polypeptone (2.0 g/l), yeast extract (0.2 g/l), NH4NO3 (0.2 g/l), and tetracycline (14 mg/l). The culture was shaken for 15 hours at 25° C. and then centrifuged at 8000 rpm for 10 minutes. The pellet was then washed with 0.9% NaCl solution three times before immobilization. The concentration of HK44 was enumerated by measuring optical density at 546 nm. The HK44 was immobilized by suspending bacteria in 0.9% NaCl solution and mixing with a low-viscosity alginate (28 g/L) and NaCl (9 g/L) solution in a ratio of 1:2 by volume. Beads were formed by controlled dropwise addition to 0.1 M CaCl2 solution by a syringe needle installed in an air jet controlled by a precision regulator (Porter Instrument Co., Hatfield, Pa.) and a piece of 0.003-in. (i.d.) tubing. Beads diameters were measured using gentle wet sieving. Alginate beads were dissolved in 50 mM sodium hexametaphosphate. […]

[2] = Adsorption isotherms on calcium alginate; assay type: physicochemical
Protocol: Tracer concentrations were measured using a Waters ion-chromatography system with a series 510 HPLC pump, IC-PAK anion exchange column, and 431 conductance detector (Waters, Cam-bridge, MA) or monitored continuously using fluorescence.

O=C([O-])c1ccccc1O.[Na+] [Sodium salicylate, sodium salicylate]
least-squares reaction rate constant, overall second order model ([1]; complete data set, figure legends): 2.23×10^−2 dm^3/g mol
Salicylate effluent ± σ ([1]; experiment 1a, biomass 3.3 × 10^9 cells/mL, feed 2.25 mg/L, τ 14 min): 1.43 ± 2.85 × 10^−2 mg/L
Salicylate effluent ± σ ([1]; experiment 1b, biomass 3.3 × 10^9 cells/mL, feed 2.25 mg/L, τ 58 min): 0.46 ± 0.84 × 10^−2 mg/L
Salicylate effluent ± σ ([1]; experiment 1c, biomass 3.3 × 10^9 cells/mL, feed 2.25 mg/L, τ 14 min): 1.65 ± 4.77 × 10^−2 mg/L
Salicylate effluent ± σ ([1]; experiment 2a, biomass 3.5 × 10^9 cells/mL, feed 2.47 mg/L, τ 24 min): 1.03 ± 2.83 × 10^−2 mg/L
Salicylate effluent ± σ ([1]; experiment 2b, biomass 3.5 × 10^9 cells/mL, feed 2.47 mg/L, τ 26 min): 0.86 ± 0.93 × 10^−2 mg/L
Salicylate effluent ± σ ([1]; experiment 2c, biomass 3.5 × 10^9 cells/mL, feed 2.47 mg/L, τ 94 min): 0.20 + 0.28 × 10^−2 mg/L
Salicylate effluent ± σ ([1]; experiment 3a, biomass […] 10^9 cells/mL, feed 4.45 mg/L, τ 15 min): 4.06 ± 8.85 × 10^−2 mg/L
Salicylate effluent ± σ ([1]; experiment 3b, biomass […] 10^9 cells/mL, feed 4.45 mg/L, τ 18 min): 3.84 ± 6.99 × 10^−2 mg/L
Salicylate effluent ± σ ([1]; experiment 3c, biomass […] 10^9 cells/mL, feed 4.45 mg/L, τ 24 min): 3.42 ± 8.55 × 10^−2 mg/L
Salicylate effluent ± σ ([1]; experiment 3f, biomass […] 10^9 cells/mL, feed 4.45 mg/L, τ 24 min): 3.12 ± 4.09 × 10^−2 mg/L
Salicylate effluent ± σ ([1]; experiment 4b, biomass […] 10^9 cells/mL, feed 4.45 mg/L, τ 36 min): 2.76 ± 3.95 × 10^−2 mg/L
Salicylate effluent ± σ ([1]; experiment 4c, biomass […] 10^9 cells/mL, feed 4.45 mg/L, τ 48 min): 2.25 ± 3.47 × 10^−2 mg/L
Salicylate effluent ± σ ([1]; experiment 4e, biomass […] 10^9 cells/mL, feed 4.45 mg/L, τ 150 min): 0.89 ± 1.54 × 10^−2 mg/L
Salicylate effluent ± σ ([1]; experiment 4f, biomass […] 10^9 cells/mL, feed 4.45 mg/L, τ 48 min): 2.24 + 3.49 × 10^−2 mg/L
Salicylate effluent ± σ ([1]; experiment 3d, biomass […] 10^9 cells/mL, feed 4.45 mg/L, τ 36 min): 2.77 + 4.24 × 10^−2 mg/L
Salicylate effluent ± σ ([1]; experiment 4d, biomass […] 10^9 cells/mL, feed 4.45 mg/L, τ 72 min): 1.75 ± 2.03 × 10^−2 mg/L
salicylate degradation rate constant (first order in biomass, first order in salicylate) ([1]; fitted to subset 1a-c): 1.88×10^−2 dm^3 g^−1 min^−1
salicylate degradation rate constant (first order in biomass, first order in salicylate) ([1]; fitted to subset 2a-c): 2.85×10^−2 dm^3 g^−1 min^−1
salicylate degradation rate constant (first order in biomass, first order in salicylate) ([1]; fitted to subset 3a-f): 2.06×10^−2 dm^3 g^−1 min^−1
salicylate degradation rate constant (first order in biomass, first order in salicylate) ([1]; fitted to subset 4a-f): 2.28×10^−2 dm^3 g^−1 min^−1
salicylate degradation rate constant (first order in biomass, first order in salicylate) ([1]; fitted to the complete set): 2.23×10^−2 dm^3 g^−1 min^−1
slope of best-fit line, specific light response vs predicted salicylate concentration at the light probe ([1]; studies 2a-c): 1.4
slope of best-fit line, specific light response vs predicted salicylate concentration at the light probe ([1]; studies 3c-e): 2.3
slope of best-fit line, specific light response vs predicted salicylate concentration at the light probe ([1]; studies 4c-f): 1.5
conversion ([1]; study 1a): 0.64
conversion ([1]; study 1c): 0.73
conversion ([1]; study 3c): 0.77
conversion ([1]; study 3e): 0.41
conversion ([1]; study 3f): 0.70
conversion ([1]; study 4b): 0.62
conversion ([1]; study 4c): 0.50
conversion ([1]; study 4f): 0.50
conversion ([1]; study 3d): 0.62
conversion ([1]; study 4d): 0.39
adsorption on calcium alginate (in words) ([2]; listed as Salicylate): did not measurably absorb
adsorption on calcium alginate (in words) ([2]; listed as salicylate): did not appreciably partition
